Experimental data taken from patent US9157909B2, “Male reproductive health panel and uses thereof” (priority 2007, dated 2015).
Like-named read-outs stand apart in the source and are kept apart here.

Legend:
sperm [1] = conditions: comet assay, direct exposure of sperm; cited from earlier work
human sperm [2] = conditions: 50 and 100 μM H2O2 (15 min); 10, 50 and 100 μM H2O2 (1 hr)
Method: (§1) Sperm was isolated from the seminal plasma as previously described in Brown et al. 1995. The sperm pellet was resuspended in phosphate buffered saline (PBS), pH=7.4, and divided into 4 aliquots. Each aliquot (equal sperm concentrations) was incubated at 37° C. in PBS with H2O2 concentrations of 0, 10, 50, and 100 μM for 15 min and 1 hr. All aliquots were divided into 2 portions. One portion was used to determine LPO.

human sperm [3] = system: human sperm
Method: (§2) In vitro oxidative stress exposure; human sperm from a fertile […] were exposed to increasing hydrogen peroxide (H2O2) concentrations (0, 10, 50 and 100 μM), and incubated at 37° C., for 15 min and 1 hr.
as §1
(§3) The remaining portion was centrifuged at 1500 g for 15 min at room temperature. The pellet was analyzed in the HSAA.
Sperm chromatin decondensation and nuclear recondensation were evaluated in sperm exposed to increasing concentrations of H2O2 for 15 min and 1 hr using the HSAA. Sperm were analyzed at different incubation times in the egg extract using the image analysis Methamorph software system. The sperm nuclear activation was scored in 5 categories: 1) full decondensation: sperm diameter 25-30 μm, 2) partial decondensation: sperm diameter<25 μm, 3) non-decondensed, 4) hyperdecondensed: sperm diameter>(25-30 μm), and full recondensation.

human sperm [4] = conditions: for sperm heavily labeled by ^3H-TTP incorporation: incubation not printed (15 min implied)
Method: FIG. 3: HSAA—The effect of oxidative stress on DNA synthesis. Pictorial representation of autoradiographs of control untreated sperm (A-E) and sperm exposed to 100 μM H2O2 for 1 hr (a-e) assayed in the HSAA in the presence of ^3H-TTP. All the pictures were photographed using bright microscopy 60× objective. […] All pictures were printed at the same magnification.
as §2, §1, §3

human sperm [5] = experiment: HSAA of sperm exposed to ROS from PMA-activated PMNL with or without Trolox; type: cell-based
Method: PMNLs were isolated from blood of healthy donors by density gradient centrifugation. Activation and the number of peroxidase-positive leukocytes were determined using the Endtz test. Sperm from fertile males were isolated using percoll gradients (40 and 80%). Sperm from the 80% fraction was divided into 6 aliquots: 1) control non-treated sperm, 2) sperm treated with ROS inducer phorbol-12 myristate-13 acetate (PMA), 3) non-treated sperm with non-treated PMNL, 4) sperm with PMA treated PMNL, 5) sperm with PMA treated PMNL plus Trolox 40 μM, and 6) non-treated sperm plus Trolox 40 μM. Following an incubation period, sperm were evaluated for (A) sperm activation events in the HSAA, evaluating sperm activation events (decondensation, DNA synthesis, and recondensation) at 15 min, and 2 hr, and (B) determining ROS levels via nitroblue of tetrazolium (NBT) and spectrophotometry.

sperm [6] = conditions: sperm exposed to hydroxylamine, analyzed in the HSAA; cited from earlier work
[7] = Trolox 40 μM with PMA treated PMNL (oxidative stress)

For `OO` [H2O2, hydrogen peroxide], the “H2O2 concentration at which induction of DNA fragmentation was significant” value (sperm [1]) is given as 200 µM, the “LPO (amount of MDA and hydroxyalkenals), means compared to untreated control sperm” value (human sperm [2]) is given as “significantly different” and the hyper-decondensed sperm (human sperm [3]; 10 μM H2O2, 2 and 3 hr incubation in egg extract (results combined)) is given as “No sperm were hyper-decondensed”. The “recondensation appearance (FIG. 3d, e)” value (human sperm [3]; 100 μM H2O2, 1 hr exposure, 2 and 3 hr incubation in egg extract) was “irregular recondensation”, the recondensed sperm (human sperm [3]; 10 and 50 μM H2O2, 15 min exposure, 15 min incubation in egg extract) was “No recondensed sperm were observed” and the non-decondensed sperm (human sperm [3]; other concentrations (50 and 100 μM H2O2), any exposure time point, 15 min incubation in egg extract) was “no sperm were non-decondensed”. The “^3H-TTP incorporation (autoradiography)” value (human sperm [4]; 10 μM H2O2, 15 min and 1 hr exposure, 2 and 3 hr incubations in egg extract) was “normal ^3H-TTP incorporation”, the “^3H-TTP incorporation (autoradiography)” value (human sperm [4]; 10 μM H2O2, 15 min and 1 hr exposure, 5 and 15 min incubations in egg extract) was “no incorporation of ^3H-TTP” and the “heavily labeled sperm (^3H-TTP)” value (human sperm [4]; 10 μM H2O2, 15 min and 1 hr exposures, 3 hr incubation in egg extract) was 98±2%. The “sperm positive for ^3H-TTP incorporation” value (human sperm [4]; 10 μM H2O2, 15 min and 1 hr exposures, incubation time not printed (15 min in egg extract implied)) was “No sperm were positive”, the “sperm positive for ^3H-TTP incorporation” value (human sperm [4]; 10 μM H2O2, 5 min incubation in egg extract per heading (sentence prints 15 min extract incubation)) was “No sperm were positive” and the “sperm heavily labeled by ^3H-TTP incorporation” value (shortened to “sperm heavily labeled”) (human sperm [4]; 50 μM H2O2, 15 min exposure) was 10±2%. The “sperm heavily labeled” value (human sperm [4]; 100 μM H2O2, 15 min exposure) was 50±5%, the “onset of DNA synthesis (autoradiograph, FIG. 3b)” value (human sperm [4]; 100 μM H2O2, 1 hr exposure, 5 min incubation in egg extract) was “early initiation of DNA synthesis” and the “onset of DNA synthesis (autoradiograph, FIG. 3c)” value (human sperm [4]; 100 μM H2O2, 1 hr exposure, 15 min incubation in egg extract) was “early initiation of DNA synthesis”. For the same compound, the “sperm heavily labeled” value (human sperm [4]; 100 μM H2O2, 1 hr exposure) was 45±9% and the “^3H-TTP incorporation (autoradiography)” value (human sperm [4]; 50 and 100 μM H2O2, 15 min and 1 hr exposure) was “abnormal ^3H-TTP incorporation”.
For `Cc1c(C)c2c(c(C)c1O)CCC(C)(C(=O)O)O2` (stereo not shown) [Trolox, 6-Hydroxy-2,5,7,8-tetramethylchroman-. 2-carboxylic acid], the decondensation response (human sperm [5]; [7]) was “improved responses in decondensation”, the “early ^3H-TTP incorporation” value (human sperm [5]; [7]) was “no early ^3H-TTP incorporation” and the “sperm having recondensed chromatin” value (human sperm [5]; Trolox 40 μM with PMA treated PMNL, 2 hr time point, only 57% without Trolox) was 78%.
In the case of `NO` [hydroxylamine], the “onset of DNA synthesis” value (sperm [6]) is listed as “early initiation of DNA synthesis” and the sperm decondensation response (sperm [6]) is listed as “minimal decondensation”.
